Measurements from patent US8853242B2, “Nitrogenous-ring acylguanidine derivative” (Astellas Pharma Inc., priority 2009, dated 2014).

Target: human 5-HT5A receptor (Homo sapiens (Human), UniProt P47898)
Assay: Test on a human 5-HT5A receptor binding inhibition ([3H]5-CT)
Conditions: [3H]5-CT binding inhibition, membrane from HEK293 cells expressing human 5-HT5A receptor; Ki calculated from IC50
Method: The ORF (open reading frame; protein coding region) of a human 5-HT5A receptor (Genbank AF498985) was cloned from a human hippocampus cDNA library, and then inserted into a pCR2.1 vector (Invitrogen), and Escherichia coli containing the plasmid was cultured in a large amount. Next, the full-length cDNA sequence of the human 5-HT5A receptor was analyzed, and recombined into a pCDNA3.1 vector (Invitrogen) as an expression vector and cultured in a large amount. HEK293 established cells (ATCC) derived from the human fetal kidney were seeded, the expression plasmid (1 μg) obtained above were added thereto with LIPOFECTAMINE 2000 (Invitrogen; 2 μl), the gene was transfected into HEK293 cells, and the expression cells were screened with a drug-resistant marker, Geneticin (G418 sulfate 500 μg/ml; Kanto Chemical Co., Inc.). Thus prepared recombinant cells which expressed the gene were cultured in a medium containing D-MEM (Dulbecco's modified eagle medium, Sigma), 10% FCS (Fetal calf serum: fetal bovine serum), 1% Pc./Sm (Penicillin/Streptomycin, Invitrogen), and 500 μg/ml G418 for 3 days. These experimental operations followed a manual for gene operation experiment and an instruction appended in a reagent, and the like, such as a known method (Sambrook, J. et al, Molecular Cloning-A Laboratory Manual”, Cold Spring Harabor laboratory, NY, 1989).
HEK293 cells for forced expressions of a human 5-HT5A receptor were cultured in a F500 plate, and scraped with a scraper. After centrifugation, the precipitate was collected, and an incubation buffer (50 mM Tris (HCl) (pH 7.4), 10 mM MgSO4, and 0.5 mM EDTA (ethylenediamine tetraacetic acid)) was added thereto. After homogenization, it was further centrifuged, and the incubation buffer was added to the precipitate, followed by thoroughly suspending. The operation was repeated, and protein concentration was measured, thereby completing preparation of the membrane.
A solution of the compound to be tested and 100 μM 5-CT (5-carboxamidetriptamine) in DMSO was added to a 96-well plate at 2 μl/well, suspended in an incubation buffer, and a membrane from HEK293 cells for forced expressions of a human 5-HT5A receptor prepared at 200 μg/ml was added at 100 μl/well. After incubation at room temperature for 15 minutes, a [^3H]5-CT solution (2 nM [^3H]5-CT, incubation buffer) was added thereto at 100 μl/well.
Separately, 100 μl of the solution was distributed into a liquid scintillation vial, and 2 ml of Aquasol II (registered trademark) was added thereto, followed by stirring. Then, radioactivity was measured by a liquid scintillation counter. It was incubated at 37° C. for 60 minutes. The reaction mixture was sucked into 96-well GF/C filter plate that had been pre-treated with 0.2% polyethyleneimine, and washed six times with an ice-cooled, 50 mM Tris (pH 7.5) buffer. The GF/C filter plate was dried.
Microscint TMPS (registered trademark) was added thereto at 40 μl/well. Radioactivity remaining on the GF/C filter plate was measured by a top counter.
The [^3H]5-CT binding inhibiting activity by the compound to be tested in each experiment was determined as an IC50 value with a radioactivity upon addition of DMSO alone being 0% inhibition, and a radioactivity upon addition of 1 μM 5-CT being 100% inhibition. Separately, Ki values were calculated from the Kd value of the [^3H]5-CT determined from Scatchard analysis, by the following equation. Ki=IC50(1+Concentraion of ligand added/Kd(4.95 nM))

human 5-HT5A receptor, sequence (P47898 whole entry): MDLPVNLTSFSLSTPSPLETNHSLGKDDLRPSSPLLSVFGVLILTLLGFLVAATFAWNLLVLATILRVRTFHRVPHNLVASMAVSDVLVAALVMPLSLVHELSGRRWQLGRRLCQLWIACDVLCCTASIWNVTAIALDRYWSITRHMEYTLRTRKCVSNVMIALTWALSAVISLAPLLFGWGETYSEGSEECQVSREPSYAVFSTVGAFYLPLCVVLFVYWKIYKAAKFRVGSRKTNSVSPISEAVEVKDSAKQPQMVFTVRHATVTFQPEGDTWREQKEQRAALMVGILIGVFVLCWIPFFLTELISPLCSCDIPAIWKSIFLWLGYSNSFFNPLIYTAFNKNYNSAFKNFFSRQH

Ki | Structure (SMILES)
0.0016 µM | NC(N)=NC(=O)c1ccc2c(F)cnc(-c3c(F)cccc3Cl)c2c1 [Example 147]
0.0071 µM | COc1cccc(F)c1-c1ncc(F)c2ccc(C(=O)N=C(N)N)cc12 [Example 159]
0.0012 µM | NC(N)=NC(=O)c1ccc2c(Cl)cnc(-c3c(F)cccc3F)c2c1 [Example 162]

Continued, molecule first:

Structure (SMILES) | Ki
Cc1nc2ccc(C(=O)N=C(N)N)cc2c(-c2c(F)cc(F)cc2F)c1C [Example 114] | 0.0037 µM
NC(N)=NC(=O)c1ccc2c(F)cnc(-c3ccc(F)cc3Cl)c2c1 [Example 151] | 0.0041 µM
Cc1cnc(-c2c(F)cc(F)cc2F)c2cc(C(=O)N=C(N)N)ccc12 [Example 152] | 0.0013 µM
NC(N)=NC(=O)c1ccc2c(F)cnc(-c3ccccc3Cl)c2c1 [Example 161] | 0.0034 µM
NC(N)=NC(=O)c1ccc2c(F)cnc(-c3c(F)cncc3Cl)c2c1 [Example 164] | 0.0047 µM
Cc1cnc(-c2c(F)cccc2F)c2cc(C(=O)N=C(N)N)ccc12 [Example 170] | 0.0019 µM
NC(N)=NC(=O)c1ccc2c(F)cnc(-c3ncc(F)cc3Cl)c2c1 [Example 171] | 0.0062 µM

Same assay, conditions: [3H]5-CT binding, membrane from HEK293 cells expressing human 5-HT5A receptor; Ki calculated from IC50

Ki | Structure (SMILES)
0.01 to 0.1 µM | NC(N)=NC(=O)c1ccc2c(Cl)cnc(-c3cccc(Cl)c3Cl)c2c1 [Example 100]
0.001 to 0.01 µM | NC(N)=NC(=O)c1ccc2ncc(Cl)c(-c3ccncc3F)c2c1 [Example 104]
0.01 to 0.1 µM | Cc1nc2ccc(C(=O)N=C(N)N)cc2c(-c2ccccc2F)c1C [Example 105]
0.01 to 0.1 µM | COc1ncccc1-c1c(Cl)cnc2ccc(C(=O)N=C(N)N)cc12 [Example 106]
0.01 to 0.1 µM | Cc1nc2ccc(C(=O)N=C(N)N)cc2c(-c2ccc(F)cc2)c1C [Example 118]
0.01 to 0.1 µM | Cc1cc(-c2c(F)cc(F)cc2Cl)c2cc(C(=O)N=C(N)N)ccc2n1 [Example 124]
0.01 to 0.1 µM | COc1cccc(F)c1-c1c(C)c(C)nc2ccc(C(=O)N=C(N)N)cc12 [Example 129]
0.001 to 0.01 µM | Cc1nc2ccc(C(=O)N=C(N)N)cc2c(-c2ccc(F)cc2Cl)c1Cl [Example 132]
0.001 to 0.01 µM | NC(N)=NC(=O)c1ccc2ccnc(-c3ccc(Cl)cc3Cl)c2c1 [Example 138]
0.001 to 0.01 µM | N#Cc1ccc(-c2nccc3ccc(C(=O)N=C(N)N)cc23)c(F)c1 [Example 141]
0.001 to 0.01 µM | NC(N)=NC(=O)c1ccc2c(F)cnc(-c3c(F)cc(F)cc3F)c2c1 [Example 144]
0.001 to 0.01 µM | Cc1nc(-c2c(F)cc(F)cc2F)c2cc(C(=O)N=C(N)N)ccc2c1F [Example 154]
0.01 to 0.1 µM | Cc1cc2ccc(C(=O)N=C(N)N)cc2c(-c2c(F)cccc2F)n1 [Example 155]
0.001 to 0.01 µM | COc1cccc(F)c1-c1ncc(F)c2ccc(C(=O)N=C(N)N)cc12 [Example 159]
0.01 to 0.1 µM | NC(N)=NC(=O)c1ccc2c(F)cnc(-c3ccncc3F)c2c1 [Example 165]
0.001 to 0.01 µM | NC(N)=NC(=O)c1ccc2c(Cl)cnc(-c3ccccc3F)c2c1 [Example 175]
0.001 to 0.01 µM | NC(N)=NC(=O)c1ccc2c(F)cnc(-c3ccc(F)cc3)c2c1 [Example 190]
0.01 to 0.1 µM | NC(N)=NC(=O)c1ccc2c(F)cnc(-c3ccc(Cl)cc3)c2c1 [Example 191]
0.001 to 0.01 µM | COc1cnc(-c2c(F)cccc2F)c2cc(C(=O)N=C(N)N)ccc12 [Example 197]
0.001 to 0.01 µM | NC(N)=NC(=O)c1ccc2c(Cl)cnc(C3CC3)c2c1 [Example 198]
0.01 to 0.1 µM | NC(N)=NC(=O)c1ccc2c(F)cnc(-c3cccc(Cl)c3O)c2c1 [Example 199]

Continued, molecule first:

Structure (SMILES) | Ki
NC(N)=NC(=O)c1ccc2nc(C(F)(F)F)cc(-c3ccc(F)cc3F)c2c1 [Example 92] | 0.1 to 0.3 µM
COc1ccc(-c2c(Cl)cnc3ccc(C(=O)N=C(N)N)cc23)cc1 [Example 93] | 0.001 to 0.01 µM
Cc1cc(C(=O)N=C(N)N)cc2c(-c3ccc(F)cc3F)c(Cl)cnc12 [Example 99] | 0.001 to 0.01 µM
Cc1cc(C(=O)N=C(N)N)cc2c(-c3ccccc3F)c(Cl)cnc12 [Example 101] | 0.001 to 0.01 µM
NC(N)=NC(=O)c1ccc2ncc(Cl)c(C3=CCCCC3)c2c1 [Example 102] | 0.001 to 0.01 µM
Cc1cc(C(=O)N=C(N)N)cc2c(C3CC3)c(Cl)cnc12 [Example 103] | 0.01 to 0.1 µM
NC(N)=NC(=O)c1ccc2ncc(Cl)c(C3=CCCC3)c2c1 [Example 107] | 0.001 to 0.01 µM
Cc1nc2ccc(C(=O)N=C(N)N)cc2c(-c2c(F)cccc2F)c1C [Example 117] | 0.001 to 0.01 µM
COc1cc(C#N)ccc1-c1c(C)c(C)nc2ccc(C(=O)N=C(N)N)cc12 [Example 120] | 0.01 to 0.1 µM
Cc1nc2ccc(C(=O)N=C(N)N)cc2c(-c2c(F)cccc2Cl)c1C [Example 121] | 0.001 to 0.01 µM
Cc1nc2ccc(C(=O)N=C(N)N)cc2c(-c2ccccc2Cl)c1C [Example 122] | 0.01 to 0.1 µM
Cc1nc2ccc(C(=O)N=C(N)N)cc2c(-c2c(F)cccc2F)c1F [Example 123] | 0.001 to 0.01 µM
Cc1nc2ccc(C(=O)N=C(N)N)cc2c(-c2ccccc2F)c1F [Example 125] | 0.01 to 0.1 µM
Cc1nc2ccc(C(=O)N=C(N)N)cc2c(-c2ccc(F)cc2Cl)c1C [Example 126] | 0.001 to 0.01 µM
Cc1nc2ccc(C(=O)N=C(N)N)cc2c(-c2ccncc2Cl)c1C [Example 127] | 0.01 to 0.1 µM
Cc1nc2ccc(C(=O)N=C(N)N)cc2c(-c2ccccc2Cl)c1Cl [Example 130] | 0.001 to 0.01 µM
Cc1nc2ccc(C(=O)N=C(N)N)cc2c(-c2c(F)cncc2F)c1C [Example 131] | 0.01 to 0.1 µM
NC(N)=NC(=O)c1ccc2ccnc(-c3ccccc3)c2c1 [Example 133] | 0.01 to 0.1 µM
NC(N)=NC(=O)c1ccc2ccnc(-c3c(F)cccc3Cl)c2c1 [Example 134] | 0.001 to 0.01 µM
N#Cc1ccccc1-c1nccc2ccc(C(=O)N=C(N)N)cc12 [Example 139] | 0.1 to 0.3 µM
N#Cc1cc(Cl)ccc1-c1nccc2ccc(C(=O)N=C(N)N)cc12 [Example 140] | 0.01 to 0.1 µM

Structure (SMILES) | Ki
NC(N)=NC(=O)c1ccc2c(Cl)cnc(-c3c(F)cc(F)cc3F)c2c1 [Example 142] | 0.001 to 0.01 µM
N#Cc1cnc(-c2c(F)cc(F)cc2F)c2cc(C(=O)N=C(N)N)ccc12 [Example 143] | 0.01 to 0.1 µM
NC(N)=NC(=O)c1ccc2c(C3CC3)cnc(-c3c(F)cccc3F)c2c1 [Example 156] | 0.01 to 0.1 µM
CC(C)c1cnc(-c2c(F)cccc2F)c2cc(C(=O)N=C(N)N)ccc12 [Example 158] | 0.01 to 0.1 µM
NC(N)=NC(=O)c1ccc2c(F)cnc(-c3ccccc3Cl)c2c1 [Example 161] | 0.001 to 0.01 µM
NC(N)=NC(=O)c1ccc2c(F)cnc(-c3ccncc3Cl)c2c1 [Example 163] | 0.01 to 0.1 µM
NC(N)=NC(=O)c1ccc2c(F)cnc(-c3c(F)cncc3Cl)c2c1 [Example 164] | 0.001 to 0.01 µM
COc1cccc(F)c1-c1ncc(Cl)c2ccc(C(=O)N=C(N)N)cc12 [Example 166] | 0.001 to 0.01 µM
CCc1cnc(-c2c(F)cccc2F)c2cc(C(=O)N=C(N)N)ccc12 [Example 172] | 0.001 to 0.01 µM
NC(N)=NC(=O)c1ccc2c(Cl)cnc(-c3ccncc3F)c2c1 [Example 173] | 0.01 to 0.1 µM
COc1cc(F)ccc1-c1ncc(Cl)c2ccc(C(=O)N=C(N)N)cc12 [Example 174] | 0.01 to 0.1 µM
NC(N)=NC(=O)c1ccc2c(Cl)cnc(-c3ccc(Cl)cc3F)c2c1 [Example 195] | 0.001 to 0.01 µM
NC(N)=NC(=O)c1ccc2c(C(F)(F)F)cnc(-c3c(F)cccc3F)c2c1 [Example 196] | 0.01 to 0.1 µM
NC(N)=NC(=O)c1ccc2c(F)cnc(-c3cccc(F)c3Cl)c2c1 [Example 200] | 0.001 to 0.01 µM
NC(N)=NC(=O)c1ccc2c(F)cnc(-c3cccc(Cl)c3F)c2c1 [Example 201] | 0.001 to 0.01 µM
COc1cc(F)ccc1-c1ncc(F)c2ccc(C(=O)N=C(N)N)cc12 [Example 202] | 0.01 to 0.1 µM
COc1cccc(Cl)c1-c1ncc(F)c2ccc(C(=O)N=C(N)N)cc12 [Example 203] | 0.001 to 0.01 µM
COc1cc(Cl)ccc1-c1ncc(F)c2ccc(C(=O)N=C(N)N)cc12 [Example 204] | 0.01 to 0.1 µM
NC(N)=NC(=O)c1ccc2c(F)cnc(-c3cccc(F)c3F)c2c1 [Example 205] | 0.01 to 0.1 µM
Cc1cnc(-c2c(F)cccc2Cl)c2cc(C(=O)N=C(N)N)ccc12 [Example 206] | 0.001 to 0.01 µM
